For one assay, the target named is human orexin-2 receptor (Homo sapiens (Human), UniProt O43614). The assay can be described thus: In vitro assay: intracellular calcium measurements (FLIPR), antagonistic activity. Conditions: CHO cells expressing human orexin-2 receptor, orexin-A agonist, geometric mean, read-out: IC50 Ox2. Type of assay: cell-based. The method, then: (§1) In Vitro Assay: Intracellular Calcium Measurements:
(§2) Chinese hamster ovary (CHO) cells expressing the human orexin-1 receptor and the human orexin-2 receptor, respectively, are grown in culture medium (Ham F-12 with L-Glutamine) containing 300 μg/ml G418, 100 U/ml penicillin, 100 μg/ml streptomycin and 10% heat inactivated fetal calf serum (FCS). The cells are seeded at 20,000 cells/well into 384-well black clear bottom sterile plates (Greiner). The seeded plates are incubated overnight at 37° C. in 5% CO2.
(§3) Human orexin-A as an agonist is prepared as 1 mM stock solution in MeOH: water (1:1), diluted in HBSS containing 0.1% bovine serum albumin (BSA), NaHCO3: 0.375 g/l and 20 mM HEPES for use in the assay at a final concentration of 3 nM.
(§4) Antagonists are prepared as 10 mM stock solution in DMSO, then diluted in 384-well plates using DMSO followed by a transfer of the dilutions into in HBSS containing 0.1% bovine serum albumin (BSA), NaHCO3: 0.375 g/l and 20 mM HEPES. On the day of the assay, 50 μl of staining buffer (HBSS containing 1% FCS, 20 mM HEPES, NaHCO3: 0.375 g/l, 5 mM probenecid (Sigma) and […] of the fluorescent calcium indicator fluo-4 AM (1 mM stock solution in DMSO, containing 10% pluronic) is added to each well. The 384-well cell-plates are incubated for 50 min at 37° C. in 5% CO2 followed by equilibration at RT for 30 min before measurement.
(§5) Within the Fluorescent Imaging Plate Reader (FLIPR Tetra, Molecular Devices), antagonists are added to the plate in a volume of 10 μl/well, incubated for 120 min and finally 10 μl/well of agonist is added. Fluorescence is measured for each well at 1 second intervals, and the height of each fluorescence peak is compared to the height of the fluorescence peak induced by an approximate EC70 (for example 5 nM) of orexin-A with vehicle in place of antagonist. The IC50 value (the concentration of compound needed to inhibit 50% of the agonistic response) is determined and may be normalized using the obtained IC50 value of a on-plate reference compound. Optimized conditions are achieved by adjustment of pipetting speed and cell splitting regime. The calculated IC50 values may fluctuate depending on the daily cellular assay performance. Fluctuations of this kind are known to those skilled in the art. Average IC50 values from several measurements are given as geometric mean values.
(In general: Calcium flux is commonly read through the fluorescence of an indicator in the cells.)

For another assay, the target named is human orexin-1 receptor (Homo sapiens (Human), UniProt O43613). Described as above. In kind it is cell-based. The conditions noted are these: CHO cells expressing human orexin-1 receptor, orexin-A agonist, geometric mean, read-out: IC50 Ox1. The method, then: as §1, §2, §3, §4, §5
Sequence of human orexin-1 receptor (O43613 whole entry): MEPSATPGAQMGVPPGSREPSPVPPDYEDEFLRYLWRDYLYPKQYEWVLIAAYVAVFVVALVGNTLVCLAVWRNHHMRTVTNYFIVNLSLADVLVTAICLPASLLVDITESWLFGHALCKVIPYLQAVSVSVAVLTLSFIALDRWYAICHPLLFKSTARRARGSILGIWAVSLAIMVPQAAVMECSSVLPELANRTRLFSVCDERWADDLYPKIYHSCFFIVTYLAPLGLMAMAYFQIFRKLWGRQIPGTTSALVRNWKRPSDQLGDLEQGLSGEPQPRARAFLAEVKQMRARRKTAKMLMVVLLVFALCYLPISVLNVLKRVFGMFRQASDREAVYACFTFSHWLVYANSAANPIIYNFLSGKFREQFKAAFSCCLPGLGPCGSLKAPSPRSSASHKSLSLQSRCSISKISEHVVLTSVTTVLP

Results on 40 molecules are retold here after patent US9732075B2, “Benzimidazole-proline derivatives” (IDORSIA PHARMACEUTICALS LTD, priority 2012, dated 2017).

SMILES strings stand for the structures.

The IC50 is the midpoint of a concentration-inhibition curve.

Sequence of human orexin-2 receptor (O43614 whole entry): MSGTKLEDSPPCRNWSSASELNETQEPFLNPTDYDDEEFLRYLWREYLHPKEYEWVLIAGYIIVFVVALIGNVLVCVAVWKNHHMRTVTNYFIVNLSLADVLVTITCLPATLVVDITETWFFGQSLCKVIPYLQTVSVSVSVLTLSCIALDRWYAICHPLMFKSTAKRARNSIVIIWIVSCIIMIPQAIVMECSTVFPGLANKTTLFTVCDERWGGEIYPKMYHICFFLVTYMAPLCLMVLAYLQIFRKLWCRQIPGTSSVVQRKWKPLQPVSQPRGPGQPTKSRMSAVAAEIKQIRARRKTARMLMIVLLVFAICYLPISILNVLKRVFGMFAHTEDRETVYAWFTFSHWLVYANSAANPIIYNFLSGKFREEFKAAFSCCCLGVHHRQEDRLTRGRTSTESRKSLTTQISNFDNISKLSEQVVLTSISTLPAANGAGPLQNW

As for `Cc1nc(C(=O)N2CCC[C@@]2(C)c2nc3c(F)c(F)ccc3[nH]2)c(-c2ccccc2)s1` [Ex. 5.206], the figures for the IC50 at human orexin-2 receptor and at human orexin-1 receptor were 117 nM and 19 nM, respectively.

As to `C=C1C[C@@H](c2nc3cc(OC)ccc3[nH]2)N(C(=O)c2nc(C)sc2-c2ccc(C)c(C)c2)C1` [Ex. 6.9], the values for the IC50 on human orexin-2 receptor and on human orexin-1 receptor were 4 nM and 7 nM, respectively.

As for `Cc1nc(C(=O)N2CC[C@H](C)[C@H]2c2nc3c(Cl)cccc3[nH]2)c(-c2ccc(F)c(F)c2)s1` [Ex. 4.126], the IC50 at human orexin-2 receptor was found to be 2380 nM; at human orexin-1 receptor, 43 nM.

As to `C=C1C[C@@H](c2nc3cc(SC)ccc3[nH]2)N(C(=O)c2nc(C)sc2-c2ccc(C)c(C)c2)C1` [Ex. 6.52], the figures for the IC50 at human orexin-2 receptor and at human orexin-1 receptor were 2 nM and 8 nM, respectively.

Turning to `COc1ccc(-c2ccc(C)cc2C(=O)N2CCC[C@@]2(C)c2nc3cc(C(F)(F)F)ccc3[nH]2)cc1` [Ex. 5.191], the IC50 on human orexin-2 receptor stood at 69 nM; at human orexin-1 receptor it was 18 nM.

Consider `Cc1ccc(-c2ccccc2C(=O)N2CC[C@H](C)[C@H]2c2nc3c(C)c(Cl)ccc3[nH]2)cc1` [Ex. 4.61], for which the concentration for half-maximal inhibition (IC50) on human orexin-2 receptor was found to be 72 nM; on human orexin-1 receptor it was 0.9 nM.

Turning to `Cc1c(Cl)ccc2[nH]c([C@]3(C)CCCN3C(=O)c3c(F)cccc3-c3ncccn3)nc12` [Ex. 5.222], the IC50 at human orexin-2 receptor was found to be 68 nM; at human orexin-1 receptor, 26 nM.

Take `CSc1cccc2nc([C@@H]3CCCN3C(=O)c3cc(F)ccc3-n3nccn3)[nH]c12` [Ex. 1.163]: the figures for the IC50 at human orexin-2 receptor and at human orexin-1 receptor were 17 nM and 167 nM, respectively.

Regarding `Cc1ccc(-n2nccn2)c(C(=O)N2CCC[C@@]2(C)c2nc3cc(C(F)(F)F)ccc3[nH]2)c1` [Ex. 5.9], the concentration for half-maximal inhibition (IC50) on human orexin-2 receptor turned out to be 81 nM; at human orexin-1 receptor, 8 nM.

As to `C=C1CC(c2nc3c(C)c(Cl)ccc3[nH]2)N(C(=O)c2cc(C)sc2-c2ccc(C)c(C)c2)C1` (stereo not shown) [Ex. 6.74], the concentration for half-maximal inhibition (IC50) on human orexin-2 receptor stood at 11 nM; at human orexin-1 receptor it was 4 nM.

As to `Cc1ccc(-n2nccn2)c(C(=O)N2CCC[C@@]2(C)c2nc3cc(F)c(Br)cc3n2C)c1` [Ex. 7.32], the half-inhibitory concentration (IC50) on human orexin-2 receptor turned out to be 124 nM; on human orexin-1 receptor, 7 nM.

`CSc1cccc2nc([C@@H]3CCCN3C(=O)c3nc(C)sc3-c3cc(F)cc(F)c3)[nH]c12` [Ex. 1.71]: the IC50 was determined as 162 nM on human orexin-2 receptor and 95 nM on human orexin-1 receptor.

On to `C=C1C[C@@H](c2nc3cc(C)c(C)cc3[nH]2)N(C(=O)c2cc(C)ccc2-n2cccn2)C1` [Ex. 6.201], for which the IC50 at human orexin-2 receptor was found to be 25 nM; at human orexin-1 receptor, 148 nM.

Consider `C=C1C[C@@H](c2nc3cc(C)c(C)cc3[nH]2)N(C(=O)c2c(-n3nccn3)ccc(OC)c2F)C1` [Ex. 6.195], for which the half-maximal inhibitory concentration (IC50) amounted to 11 nM on human orexin-2 receptor and 43 nM on human orexin-1 receptor.

On to `Cc1nc(C(=O)N2CC[C@H](C)[C@H]2c2nc3cc(Cl)c(C)cc3[nH]2)c(-c2cccc(Cl)c2)s1` [Ex. 4.15], for which the IC50 on human orexin-2 receptor came out at 670 nM; at human orexin-1 receptor, 2 nM.

Take `COc1cccc(-c2nc(C(=O)N3CCC[C@@]3(C)c3nc4ccc(Cl)c(C)c4[nH]3)c(-c3ccc(F)cc3)s2)c1` [Ex. 5.231]: the IC50 at human orexin-2 receptor worked out at 135 nM; on human orexin-1 receptor, 15 nM.

As for `Cc1cc(C(=O)N2CCC[C@@]2(C)c2nc3c(C)c(Cl)ccc3[nH]2)c(-c2ccccc2)cn1` [Ex. 5.264], the IC50 on human orexin-2 receptor is 65 nM; at human orexin-1 receptor it was 25 nM.

In the case of `Cc1nc(C(=O)N2CCC[C@@]2(C)c2nc3c(C)c(C)c(Br)cc3[nH]2)c(-c2ccc(C)c(C)c2)s1` [Ex. 5.273], the concentration for half-maximal inhibition (IC50) on human orexin-2 receptor stood at 12 nM; at human orexin-1 receptor, 7 nM.

For the molecule `COc1ccccc1-c1ccc(C)cc1C(=O)N1CCC[C@@]1(C)c1nc2cc(C(F)(F)F)c(Cl)cc2[nH]1` [Ex. 5.148], the IC50 turned out to be 159 nM at human orexin-2 receptor and 35 nM at human orexin-1 receptor.

In the case of `Cc1nc(C(=O)N2CCCC2c2nc3cc(C(C)(C)C)ccc3[nH]2)c(-c2cccc(Cl)c2)s1` (stereo not shown) [Ex. 1.99], the IC50 is 50 nM at human orexin-2 receptor and 58 nM on human orexin-1 receptor.

In the case of `C=C1C[C@@H](c2nc3cccc(C)c3[nH]2)N(C(=O)c2nc(C)sc2-c2ccc(OC)nc2)C1` [Ex. 6.103], the IC50 at human orexin-2 receptor came out at 6 nM; at human orexin-1 receptor, 184 nM.

With `CSc1cccc2nc([C@@H]3CCCN3C(=O)c3nc(C)sc3-c3cccc(Cl)c3)[nH]c12` [Ex. 1.13], the IC50 was 24 nM on human orexin-2 receptor and 15 nM on human orexin-1 receptor.

Take `Cc1ccc(C(=O)N2CC[C@H](C)[C@H]2c2nc3c(C)c(Cl)ccc3[nH]2)c(-n2nccn2)c1` [Ex. 4.62]: the half-maximal inhibitory concentration (IC50) was 19 nM on human orexin-2 receptor and 3 nM on human orexin-1 receptor.

As to `Cc1cc(C(=O)N2CCC[C@@]2(C)c2nc3cc(C(F)(F)F)ccc3[nH]2)c(-n2nccn2)cc1C` [Ex. 5.170], the IC50 was 13 nM at human orexin-2 receptor and 2 nM at human orexin-1 receptor.

As for `CO[C@H]1C[C@@H](c2nc3c(C)c(Cl)ccc3[nH]2)N(C(=O)c2nc(C)sc2-c2cccc(Cl)c2)C1` [Ex. 3.8], the IC50 on human orexin-2 receptor stood at 12 nM; at human orexin-1 receptor, 22 nM.

For `Cc1nc(C(=O)N2CC[C@H](C)[C@H]2c2nc3cc(C(F)(F)F)ccc3[nH]2)c(-c2ccc(Cl)cc2)s1` [Ex. 4.139], the IC50 at human orexin-2 receptor came out at 2260 nM; on human orexin-1 receptor, 5 nM.

Regarding `COc1ccc(-c2ccc(OC)c(F)c2C(=O)N2CCC[C@@]2(C)c2nc3c(C)c(Cl)ccc3[nH]2)cc1` [Ex. 5.297], the IC50 at human orexin-2 receptor was 57 nM; on human orexin-1 receptor it was 41 nM.

On to `CSc1cccc2nc([C@@H]3CCCN3C(=O)c3cncnc3-c3ccc(Br)c(Cl)c3)[nH]c12` [Ex. 1.84], for which the IC50 is 20 nM at human orexin-2 receptor and 14 nM at human orexin-1 receptor.

For the molecule `COc1cccc(-c2sc(C)nc2C(=O)N2CCC[C@@]2(C)c2nc3cc(OC(F)(F)F)ccc3[nH]2)c1` [Ex. 5.247], the IC50 at human orexin-2 receptor was 136 nM; at human orexin-1 receptor, 10 nM.

For the molecule `C[C@@]1(c2nc3cc(Cl)c(C(F)(F)F)cc3[nH]2)CCCN1C(=O)c1nc(-c2ccccc2)sc1-c1ccc(F)cc1` [Ex. 5.285], the figures for the IC50 on human orexin-2 receptor and on human orexin-1 receptor were 452 nM and 32 nM, respectively.

In the case of `Cc1ccc(-c2ncccn2)c(C(=O)N2CCC[C@@]2(C)c2nc3ccc(F)c(F)c3[nH]2)c1` [Ex. 5.283], the IC50 on human orexin-1 receptor worked out at 87 nM.

`Cc1ccc(-c2ncccn2)c(C(=O)N2CCC[C@@]2(C)c2nc3cc(C(F)(F)F)c(Cl)cc3[nH]2)c1` [Ex. 5.279]: the IC50 on human orexin-2 receptor stood at 8 nM.

For `Cc1ccc(-n2nccn2)c(C(=O)N2CC[C@H](C)[C@H]2c2nc3c(C)c(Cl)ccc3[nH]2)c1F` [Ex. 4.68], the IC50 on human orexin-1 receptor was determined as 2 nM.

In the case of `CO[C@H]1CN(C(=O)c2cc(C)c(C)cc2-n2nccn2)C(C)(c2nc3c(C)c(Cl)ccc3[nH]2)C1` (stereo partly shown) [Ex. 3.48], the IC50 on human orexin-2 receptor turned out to be 4 nM.

Consider `Cc1nc(C(=O)N2CCC[C@@]2(C)c2nc3c(C)c(C)c(Br)cc3[nH]2)c(-c2cc(F)cc(F)c2)s1` [Ex. 5.274], for which the IC50 on human orexin-2 receptor turned out to be 8 nM.

Regarding `Cc1nc(C(=O)N2CCCC2c2nc3cc(F)c(Cl)cc3[nH]2)c(-c2cccc(Cl)c2)s1` (stereo not shown) [Ex. 1.98], the half-inhibitory concentration (IC50) on human orexin-1 receptor came to 105 nM.

As to `Cc1ccc(-c2sc(C)nc2C(=O)N2CC[C@H](C)[C@H]2c2nc3c(C(F)(F)F)cccc3[nH]2)cc1` [Ex. 4.153], at human orexin-2 receptor, the IC50 is 80 nM.

With `Cc1nc(C(=O)N2CC[C@H](C)[C@H]2c2nc3cc(C(F)(F)F)ccc3[nH]2)c(-c2ccc(C)c(C)c2)s1` [Ex. 4.145], the IC50 at human orexin-2 receptor turned out to be 635 nM.

As for `Cc1cc(C(=O)N2CCC[C@@]2(C)c2nc3cc(C(F)(F)F)c(Cl)cc3[nH]2)c(-n2nccn2)cc1C` [Ex. 5.137], the half-inhibitory concentration (IC50) on human orexin-2 receptor came to 6 nM.

On to `C[C@@]1(c2nc3cc(F)c(Br)cc3[nH]2)CCCN1C(=O)c1cc(F)ccc1-n1nccn1` [Ex. 5.126], for which, at human orexin-1 receptor, the IC50 is 117 nM.
